Experimental data reported in ChEMBL document CHEMBL3217429, “Structural studies of Enterococcus faecalis methionine aminopeptidase and design of microbe specific 2,2-bipyridine based inhibitors” (Medchemcomm, 2012).
Active and inactive are the calls of the source. The rule behind the calls is not given here.

Key:
[1] = system: Enterococcus faecalis; experiment: (§1) Inhibition of Enterococcus faecalis recombinant type 1 methionine aminopeptidase expressed in Escherichia coli BL21 (DE3) using Met-pNA substrate
[2] = as §1
[3] = system: Enterococcus faecalis; experiment: Maximal inhibition of Enterococcus faecalis recombinant type 1 methionine aminopeptidase expressed in Escherichia coli BL21 (DE3) using Met-pNA substrate at 10 uM in presence of CoCl2
[4] = system: Enterococcus faecalis; experiment: Inhibition of Enterococcus faecalis recombinant type 1 methionine aminopeptidase expressed in Escherichia coli BL21 (DE3) using Met-pNA substrate by spectral study in presence of CoCl2
[5] = system: Enterococcus faecalis; experiment: Inhibition of Enterococcus faecalis recombinant type 1 methionine aminopeptidase expressed in Escherichia coli BL21 (DE3) using Met-pNA substrate by spectral study in presence of Mn2+

Row | SMILES | inhibition [1] | IC50 [2] | inhibition [3] | inhibition [4] | inhibition [5]
1 | O=C([O-])CC(O)(CC(=O)[O-])C(=O)[O-].[Na+].[Na+].[Na+] | inactive |  |  |  | 
2 | c1cc(-c2ccncc2)ccn1 | inactive |  |  |  | 
3 | c1ccc(-c2ccccn2)nc1 [DIPYRIDYL] |  | 6.67 µM | 75% | Active | Active
